Measurements: the supplement of paper PMC10307832

Assays:
Test in all cases: relative viability (nuclei count vs DMSO), 5 days (fraction); higher = more cells survive
Selisistat + Tozasertib = compound: C1CC(C2=C(C1)C3=C(N2)C=CC(=C3)Cl)C(=O)N [Selisistat] + Cc1cc(Nc2cc(N3CCN(C)CC3)nc(Sc3ccc(NC(=O)C4CC4)cc3)n2)n[nH]1 [Tozasertib] (partner 0.1 µM)
Summary of the method: (§1)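 Lung cancer cell lines in 1536-well plates got either a single drug or a fixed anchor-drug dose together with five library-drug doses (not always all listed) in √10 steps, by pin tool, on the day after seeding. Nuclei were counted after 5 days, and relative viability is the treated-to-vehicle ratio of nuclei counts. Values are medians of duplicate plates.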

Selisistat + Phenformin = compound: C1CC(C2=C(C1)C3=C(N2)C=CC(=C3)Cl)C(=O)N [Selisistat] + N=C(N)NC(=N)NCCc1ccccc1 [Phenformin] (partner 250 µM)
Summary of the method: as §1

Serdemetan + Bortezomib = compound: c1ccc2c(CCNc3ccc(Nc4ccncc4)cc3)c[nH]c2c1 [Serdemetan] + CC(C)C[C@H](NC(=O)[C@H](Cc1ccccc1)NC(=O)c1cnccn1)B(O)O [Bortezomib] (partner 0.002 µM)
Summary of the method: as §1

Serdemetan + Lapatinib = compound: c1ccc2c(CCNc3ccc(Nc4ccncc4)cc3)c[nH]c2c1 [Serdemetan] + CS(=O)(=O)CCNCc1ccc(-c2ccc3ncnc(Nc4ccc(OCc5cccc(F)c5)c(Cl)c4)c3c2)o1 [Lapatinib] (partner 2 µM)
Summary of the method: as §1

Cell Line | relative viability (Selisistat + Tozasertib; first compound 0.4 µM) | relative viability (Selisistat + Tozasertib; first compound 1.265 µM) | relative viability (Selisistat + Tozasertib; first compound 12.65 µM) | relative viability (Selisistat + Tozasertib; first compound 40 µM) | relative viability (Selisistat + Phenformin; first compound 0.4 µM) | relative viability (Selisistat + Phenformin; first compound 1.265 µM) | relative viability (Selisistat + Phenformin; first compound 12.65 µM) | relative viability (Selisistat + Phenformin; first compound 40 µM) | relative viability (Serdemetan + Bortezomib; first compound 0.04 µM) | relative viability (Serdemetan + Bortezomib; first compound 0.1265 µM) | relative viability (Serdemetan + Bortezomib; first compound 0.4 µM) | relative viability (Serdemetan + Bortezomib; first compound 1.265 µM) | relative viability (Serdemetan + Bortezomib; first compound 4 µM) | relative viability (Serdemetan + Lapatinib; first compound 0.04 µM) | relative viability (Serdemetan + Lapatinib; first compound 0.1265 µM) | relative viability (Serdemetan + Lapatinib; first compound 0.4 µM) | relative viability (Serdemetan + Lapatinib; first compound 1.265 µM) | relative viability (Serdemetan + Lapatinib; first compound 4 µM) | relative viability (Selisistat + Tozasertib; first compound 4 µM) | relative viability (Selisistat + Phenformin; first compound 4 µM)
NCI-H2087 | 0.247 | 0.236 | 0.164 | 0.272 | 0.54 | 0.455 | 0.44 | 0.472 | 0.738 | 0.812 | 0.759 | 0.375 | 0.572 | 1.06 | 0.974 | 1.1 | 0.641 | 0.508 | – | –
NCI-H2126 | 0.852 | 0.819 | 0.841 | 0.867 | 0.516 | 0.489 | 0.537 | 0.551 | 1.12 | 1.12 | 1.11 | 0.934 | 1.12 | 0.736 | 0.724 | 0.78 | 0.645 | 0.844 | 0.825 | 0.499
NCI-H2228 | 0.315 | 0.223 | 0.315 | 0.217 | 0.301 | 0.271 | 0.295 | 0.307 | 1.34 | 1.02 | 0.974 | 0.404 | 0.301 | 1.07 | 1.03 | 0.984 | 0.431 | 0.391 | 0.29 | 0.205
NCI-H2347 | 0.606 | 0.733 | 0.617 | 0.583 | 0.4 | 0.438 | 0.382 | 0.276 | 1.05 | 0.752 | 1.2 | 1.01 | 0.744 | 0.8 | 0.938 | 0.781 | 0.812 | 0.872 | 0.427 | 0.228
NCI-H2405 | 0.784 | 0.752 | 0.763 | 0.722 | 0.401 | 0.333 | 0.393 | 0.397 | 0.976 | 0.915 | 0.905 | 0.738 | 0.949 | 1 | 1.06 | 1.17 | 1.07 | 0.963 | 0.719 | 0.222
NCI-H3122 | 0.367 | 0.352 | 0.34 | 0.372 | 0.406 | 0.367 | 0.369 | 0.371 | 1.03 | 0.955 | 1.06 | – | 1.08 | 1 | 0.98 | 1 | – | 1.03 | 0.347 | 0.294
PC-3 [JPC-3] | 0.917 | 0.853 | 0.857 | 0.915 | 0.488 | 0.481 | 0.487 | 0.48 | 0.868 | 0.861 | – | 0.755 | 0.812 | 0.439 | 0.471 | – | 0.447 | 0.465 | 0.82 | 0.48
PC-14 | 0.649 | 0.563 | 0.581 | 0.656 | 0.522 | 0.415 | 0.488 | 0.643 | 0.924 | 0.797 | 0.791 | 0.606 | 0.497 | 0.335 | 0.3 | 0.295 | 0.259 | 0.251 | 0.522 | 0.314
RERF-LC-KJ | 0.662 | 0.46 | 0.403 | 0.371 | 0.5 | 0.412 | 0.338 | 0.362 | 1.19 | 1.16 | 1.06 | 1.03 | 0.797 | 0.757 | 0.811 | 0.826 | 0.8 | 0.754 | 0.519 | 0.399
SK-LU-1 | 0.365 | 0.329 | 0.32 | 0.314 | 0.504 | 0.528 | 0.542 | 0.625 | 1.15 | 0.921 | 1.24 | 1.1 | 0.988 | 0.758 | 0.772 | 0.822 | 0.781 | 0.612 | 0.302 | 0.465
SW 1573 | 0.206 | 0.175 | 0.206 | 0.184 | 0.411 | 0.314 | 0.445 | 0.399 | 0.931 | 1.01 | 0.892 | 0.308 | 0.242 | 1.09 | 1.11 | 1.05 | 0.93 | 0.596 | 0.175 | 0.362
